System: T1, tubulin (β-tubulin, colchicine binding site)
T1 construct: gene TUBB; with α-tubulin
Test: in vitro tubulin polymerisation assay; supported by EBI competition assay (β-tubulin adduct) in PC3 cells
Assay type: biochemical

IC50: 2030 nM
SMILES: COc1ccc(CN(C(=O)CN2C(=O)CCCC2=O)c2cc(OC)c(OC)c(OC)c2)cc1 [17a, 2–(2,6-Dioxopiperidin-1-yl)-N-(4-methoxybenzyl)-N-(3,4,5-trimethoxyphenyl) acetamide]

Source: PMC7646549, “Novel piperidine derivatives as colchicine binding site inhibitors induce apoptosis and inhibit epithelial-mesenchymal transition against prostate cancer PC3 cells” (Journal of Enzyme Inhibition and Medicinal Chemistry, 2020)
